Assays:
[1] = tested on: E. coli BW25113: pUCacrAB; assay: AcrAB-TolC efflux overexpression screen, relative MIC; type: cell-based, Escherichia coli; conditions: pUCacrAB vs empty pUC118 control
Procedure, shortened: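 Broth microdilution in MHB (supplemented MS for SCH79797), ten-step antibiotic dilutions, 5 × 10^5 cells/mL, 18 h at 37 °C with shaking; MIC is lowest concentration giving background-corrected OD600 < 0.05. Relative MIC as log2 ratio: ΔacrB vs wild-type; pUCacrAB vs empty pUC118 (plasmid strains under 100 µg/mL ampicillin). Mean of 3 biological replicates.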

[2] = tested on: A. baumannii ATCC 17978 (SEN) and A. baumannii ATCC BAA-1605 (MDR); assay: Adaptive laboratory evolution (ALE), relative MIC of evolved lines; type: cell-based, Acinetobacter baumannii
Procedure, shortened: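 Ten parallel populations per antibiotic–ancestor pair were evolved in MHB at 37 °C, starting near 50% growth-inhibiting drug. Every 72 h they were passaged into 0.5–2.5× increasing concentrations, keeping the highest-drug well with OD600 > 0.2.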

[3] = AB-MDR (Acinetobacter baumannii ATCC BAA 1605), evolved line 2
[4] = AB-MDR (Acinetobacter baumannii ATCC BAA 1605), evolved line 5
[5] = AB-MDR (Acinetobacter baumannii ATCC BAA 1605), evolved line 7
[6] = AB-MDR (Acinetobacter baumannii ATCC BAA 1605), evolved line 9
[7] = AB-MDR (Acinetobacter baumannii ATCC BAA 1605), evolved line 10
[8] = AB-SEN (Acinetobacter baumannii ATCC 17978), evolved line 4
[9] = AB-SEN (Acinetobacter baumannii ATCC 17978), evolved line 6
[10] = AB-SEN (Acinetobacter baumannii ATCC 17978), evolved line 8
[11] = AB-SEN (Acinetobacter baumannii ATCC 17978), evolved line 9
[12] = AB-SEN (Acinetobacter baumannii ATCC 17978), evolved line 10

## CC(C)c1ccc(Cn2ccc3c4c(N)nc(NC5CC5)nc4ccc32)cc1 [SCH79797]
[1]; replicate 1
  Relative MIC (log2): 1
[1]; replicate 2
  Relative MIC (log2): 1
[1]; replicate 3
  Relative MIC (log2): 1
[2]; AB-MDR (A. baumannii ATCC BAA 1605), evolved line 2 of the given antibiotic
  MIC of evolved line: 8 µg/mL
[2]; AB-MDR (A. baumannii ATCC BAA 1605), evolved line 2 vs ancestor
  Relative MIC: 2
[2]; AB-MDR (A. baumannii ATCC BAA 1605), evolved line 5 of the given antibiotic
  MIC of evolved line: 8 µg/mL
[2]; AB-MDR (A. baumannii ATCC BAA 1605), evolved line 5 vs ancestor
  Relative MIC: 2
[2]; AB-MDR (A. baumannii ATCC BAA 1605), evolved line 7 of the given antibiotic
  MIC of evolved line: 16 µg/mL
[2]; AB-MDR (A. baumannii ATCC BAA 1605), evolved line 7 vs ancestor
  Relative MIC: 4
[2]; AB-MDR (A. baumannii ATCC BAA 1605), evolved line 9 of the given antibiotic
  MIC of evolved line: 8 µg/mL
[2]; AB-MDR (A. baumannii ATCC BAA 1605), evolved line 9 vs ancestor
  Relative MIC: 2
[2]; AB-MDR (A. baumannii ATCC BAA 1605), evolved line 10 of the given antibiotic
  MIC of evolved line: 8 µg/mL
[2]; AB-MDR (A. baumannii ATCC BAA 1605), evolved line 10 vs ancestor
  Relative MIC: 2
[2]; [3]
  Relative MIC: 2
  Relative MIC (log10): 0.301 log10
[2]; [4]
  Relative MIC: 2
  Relative MIC (log10): 0.301 log10
[2]; [5]
  Relative MIC: 4
  Relative MIC (log10): 0.6021 log10
[2]; [6]
  Relative MIC: 2
  Relative MIC (log10): 0.301 log10
[2]; [7]
  Relative MIC: 2
  Relative MIC (log10): 0.301 log10
[2]; AB-SEN (A. baumannii ATCC 17978), evolved line 2 of the given antibiotic
  MIC of evolved line: 4 µg/mL
[2]; AB-SEN (A. baumannii ATCC 17978), evolved line 2 vs ancestor
  Relative MIC: 1
[2]; AB-SEN (A. baumannii ATCC 17978), evolved line 4 of the given antibiotic
  MIC of evolved line: 8 µg/mL
[2]; AB-SEN (A. baumannii ATCC 17978), evolved line 4 vs ancestor
  Relative MIC: 2
[2]; AB-SEN (A. baumannii ATCC 17978), evolved line 6 of the given antibiotic
  MIC of evolved line: 8 µg/mL
[2]; AB-SEN (A. baumannii ATCC 17978), evolved line 6 vs ancestor
  Relative MIC: 2
[2]; AB-SEN (A. baumannii ATCC 17978), evolved line 8 of the given antibiotic
  MIC of evolved line: 8 µg/mL
[2]; AB-SEN (A. baumannii ATCC 17978), evolved line 8 vs ancestor
  Relative MIC: 2
[2]; AB-SEN (A. baumannii ATCC 17978), evolved line 9 of the given antibiotic
  MIC of evolved line: 8 µg/mL
[2]; AB-SEN (A. baumannii ATCC 17978), evolved line 9 vs ancestor
  Relative MIC: 2
[2]; AB-SEN (A. baumannii ATCC 17978), evolved line 10 of the given antibiotic
  MIC of evolved line: 8 µg/mL
[2]; AB-SEN (A. baumannii ATCC 17978), evolved line 10 vs ancestor
  Relative MIC: 2
[2]; AB-SEN (Acinetobacter baumannii ATCC 17978), evolved line 2
  Relative MIC: 1
[2]; [8]
  Relative MIC: 2
  Relative MIC (log10): 0.301 log10
[2]; [9]
  Relative MIC: 2
  Relative MIC (log10): 0.301 log10
[2]; [10]
  Relative MIC: 2
  Relative MIC (log10): 0.301 log10
[2]; [11]
  Relative MIC: 2
  Relative MIC (log10): 0.301 log10
[2]; [12]
  Relative MIC: 2
  Relative MIC (log10): 0.301 log10
[2]; ALE, Acinetobacter baumannii ATCC 17978 (AB-SEN), evolved line 2
  Relative MIC: 1
[2]; ALE, Acinetobacter baumannii ATCC 17978 (AB-SEN), evolved line 4
  Relative MIC: 2
[2]; ALE, Acinetobacter baumannii ATCC 17978 (AB-SEN), evolved line 6
  Relative MIC: 2
[2]; ALE, Acinetobacter baumannii ATCC 17978 (AB-SEN), evolved line 8
  Relative MIC: 2
[2]; ALE, Acinetobacter baumannii ATCC 17978 (AB-SEN), evolved line 9
  Relative MIC: 2
[2]; ALE, Acinetobacter baumannii ATCC 17978 (AB-SEN), evolved line 10
  Relative MIC: 2
[2]; ALE, Acinetobacter baumannii ATCC BAA 1605 (AB-MDR), evolved line 2
  Relative MIC: 2
[2]; ALE, Acinetobacter baumannii ATCC BAA 1605 (AB-MDR), evolved line 5
  Relative MIC: 2
[2]; ALE, Acinetobacter baumannii ATCC BAA 1605 (AB-MDR), evolved line 7
  Relative MIC: 4
[2]; ALE, Acinetobacter baumannii ATCC BAA 1605 (AB-MDR), evolved line 9
  Relative MIC: 2
[2]; ALE, Acinetobacter baumannii ATCC BAA 1605 (AB-MDR), evolved line 10
  Relative MIC: 2
[2]; Acinetobacter baumannii ATCC 17978 (AB-SEN), evolved line 2
  Relative MIC: 1
[2]; Acinetobacter baumannii ATCC 17978 (AB-SEN), evolved line 4
  Relative MIC: 2
[2]; Acinetobacter baumannii ATCC 17978 (AB-SEN), evolved line 6
  Relative MIC: 2
[2]; Acinetobacter baumannii ATCC 17978 (AB-SEN), evolved line 8
  Relative MIC: 2
[2]; Acinetobacter baumannii ATCC 17978 (AB-SEN), evolved line 9
  Relative MIC: 2
[2]; Acinetobacter baumannii ATCC 17978 (AB-SEN), evolved line 10
  Relative MIC: 2
[2]; Acinetobacter baumannii ATCC BAA 1605 (AB-MDR), evolved line 2
  Relative MIC: 2
[2]; Acinetobacter baumannii ATCC BAA 1605 (AB-MDR), evolved line 5
  Relative MIC: 2
[2]; Acinetobacter baumannii ATCC BAA 1605 (AB-MDR), evolved line 7
  Relative MIC: 4
[2]; Acinetobacter baumannii ATCC BAA 1605 (AB-MDR), evolved line 9
  Relative MIC: 2
[2]; Acinetobacter baumannii ATCC BAA 1605 (AB-MDR), evolved line 10
  Relative MIC: 2

Reference: PMC11845477, “Exploring the principles behind antibiotics with limited resistance” (Nature Communications, 2025)
